Our source for the IC50 values is patent US10370343B2, “[6,6] Fused bicyclic HDAC8 inhibitors” (FORMA Therapeutics, Inc., priority 2015, dated 2019).

The test concerns the target T1, Recombinant N-terminal GST tag full-length human HDAC8 (Homo sapiens, UniProt Q9BY41).
T1 construct: Recombinant N-terminal GST tag full-length human HDAC8; purchased SignalChem H90-30G-1000; host or cells: baculovirus in Sf9 insect cells
T1 sequence (Q9BY41 1-377): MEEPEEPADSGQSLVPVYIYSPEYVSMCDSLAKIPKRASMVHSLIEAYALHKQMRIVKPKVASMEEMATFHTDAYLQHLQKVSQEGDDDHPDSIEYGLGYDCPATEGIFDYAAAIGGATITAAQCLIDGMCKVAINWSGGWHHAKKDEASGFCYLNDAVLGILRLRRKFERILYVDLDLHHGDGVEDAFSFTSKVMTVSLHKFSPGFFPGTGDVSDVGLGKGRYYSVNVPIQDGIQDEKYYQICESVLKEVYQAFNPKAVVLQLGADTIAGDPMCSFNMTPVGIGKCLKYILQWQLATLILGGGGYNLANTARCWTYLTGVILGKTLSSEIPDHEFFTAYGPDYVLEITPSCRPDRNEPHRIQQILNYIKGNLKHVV
Kind of test: HDAC8 probe binding assay, time resolved fluorescence (TRF) format. The note with it: compounds grouped by IC50 range (Table 2). On the procedure:
The HDAC8 probe binding assay was performed using a time resolved fluorescence (TRF) assay format. Recombinant N-terminal GST tag full-length human HDAC8 was expressed and purified from baculovirus in Sf9 insect cells (SignalChem, #[…]-1000). […] Plates were incubated for 16 hours at room temperature before time resolved fluorescence was read on the Envision (Excitation at 340 nm, and Emission at 485 nm and 535 nm, Perkin Elmer). Data from HDAC8 Assays were reported as percent inhibition (inh) compared with control wells based on the following equation: % inh=1-((FLU-AveLow)/(AveHigh-AveLow)) where FLU=measured time resolved fluorescence. AveLow=average time resolved fluorescence of no enzyme control (n=32). AveHigh=average time resolved fluorescence of DMSO control (n=32). IC50 values were determined by curve fitting of the standard 4 parameter logistic fitting algorithm included in the Activity Base software package: IDBS XE Designer Model205. Data is fitted using the Levenburg Marquardt algorithm. Ranges of IC50 values for compounds of the invention are disclosed in Table 2: Table 2. provides the compounds arranged according to […] determined in a time resolved fluorescence (TRF) assay. The compounds are separated into four groups: […]

Bounds are passed on as bounds.

For the molecule `O=C(NO)c1ccc2c(c1)N(CC1CCc3ccccc3O1)C(=O)CO2` (racemic) [Compound I-184, (+/−)-4-(chroman-2-ylmethyl)-N-hydroxy-3-oxo-3,4-dihydro-2H-benzo[b][1,4]oxazine-6-carboxamide], the IC50 (in general, the concentration needed to halve the response being measured) lay within 25 to 100 nM.

As for `O=C(NO)c1ccc2c(c1)N(CC1COc3ccccc3O1)C(=O)CO2` (racemic) [Compound I-185, (+/−)-4-((2,3-dihydrobenzo[b][1,4]dioxin-2-yl)methyl)-N-hydroxy-3-oxo-3,4-dihydro-2H-benzo[b][1,4]oxazine-6-carboxamide], the IC50 was ≤ 25 nM.

As for `O=C(NO)c1ccc2c(c1)N(Cc1ccc(C(=O)N3CCCCC3)cc1)C(=O)CO2` [Compound I-150, N-hydroxy-3-oxo-4-(4-(piperidine-1-carbonyl)benzyl)-3,4-dihydro-2H-benzo[b][1,4]oxazine-6-carboxamide], the IC50 was 25 to 100 nM. In the case of `COc1ccc(CN2C(=O)COc3c(F)cc(C(=O)NO)cc32)cc1` [Compound I-163, 8-fluoro-N-hydroxy-4-(4-methoxybenzyl)-3-oxo-3,4-dihydro-2H-benzo[b][1,4]oxazine-6-carboxamide] it was 25 to 100 nM. In the case of `O=C(NO)c1cc(F)c2c(c1)N(Cc1ccc(-n3cccn3)cc1)C(=O)CO2` [Compound I-164, 4-(4-(1H-pyrazol-1-yl)benzyl)-8-fluoro-N-hydroxy-3-oxo-3,4-dihydro-2H-benzo[b][1,4]oxazine-6-carboxamide] it was 25 to 100 nM. In the case of `COc1ccc(CN2C(=O)OCc3ccc(C(=O)NO)cc32)cc1` [Compound I-165, N-hydroxy-1-(4-methoxybenzyl)-2-oxo-2,4-dihydro-1H-benzo[d][1,3]oxazine-7-carboxamide] it was ≤ 25 nM; in that of `O=C(NO)c1ccc2c(c1)N(Cc1ccc(-n3cccn3)cc1)C(=O)OC2` [Compound I-166, 1-(4-(1H-pyrazol-1-yl)benzyl)-N-hydroxy-2-oxo-1,4-dihydro-2H-benzo[d][1,3]oxazine-7-carboxamide], ≤ 25 nM; in that of `COc1ccc(CN2CC(C(=O)N(C)C)Oc3ccc(C(=O)NO)cc32)cc1` (centres unmarked) [Compound I-169, N6-hydroxy-4-(4-methoxybenzyl)-N2,N2-dimethyl-3,4-dihydro-2H-benzo[b][1,4]oxazine-2,6-dicarboxamide], 25 to 100 nM. With `CNC(=O)C1CN(Cc2ccc(OC)cc2)c2cc(C(=O)NO)ccc2O1` (centres unmarked) [Compound I-170, N^6-hydroxy-4-(4-methoxybenzyl)-N^2-methyl-3,4-dihydro-2H, benzo[b][1,4]oxazine-2,6-dicarboxamide], the 50% inhibitory concentration (IC50) was 25 to 100 nM. As for `COc1ccc(CN2CC(C(=O)N3CCOCC3)Oc3ccc(C(=O)NO)cc32)cc1` (centres unmarked) [Compound I-171, N-hydroxy-4-(4-methoxybenzyl)-2-(morpholine-4-carbonyl)-3,4-dihydro-2H-benzo[b][1,4]oxazine-6-carboxamide], the figure is 25 to 100 nM; as for `COc1ccc(CN2CC(C(=O)NC3CCOCC3)Oc3ccc(C(=O)NO)cc32)cc1` (centres unmarked) [Compound I-172, N6-hydroxy-4-(4-methoxybenzyl)-N2-(tetrahydro-2H-pyran-4-yl)-3,4-dihydro-2H-benzo[b][1,4]oxazine-2,6-dicarboxamide], 25 to 100 nM. In the case of `O=C(NO)c1ccc2c(c1)N(Cc1cnc3c(c1)OCCO3)C(=O)CO2` [Compound I-173, 4-((2,3-dihydro-[1,4]dioxino[2,3-b]pyridin-7-yl)methyl)-N-hydroxy-3-oxo-3,4-dihydro-2H-benzo[b][1,4]oxazine-6-carboxamide] it was 25 to 100 nM; in that of `O=C(NO)c1ccc2c(c1)N(Cc1ccc(-n3cncn3)cc1)C(=O)CO2` [Compound I-175, 4-(4-(1H-1,2,4-triazol-1-yl)benzyl)-N-hydroxy-3-oxo-3,4-dihydro-2H-benzo[b][1,4]oxazine-6-carboxamide], ≤ 25 nM; in that of `O=C(NO)c1ccc2c(c1)N(Cc1ccc(N3CCCC3)cc1)C(=O)CO2` [Compound I-176, N-hydroxy-3-oxo-4-(4-(pyrrolidin-1-yl)benzyl)-3,4-dihydro-2H-benzo[b][1,4]oxazine-6-carboxamide], ≤ 25 nM. In the case of `O=C(NO)c1ccc2c(c1)N(Cc1ccc(N3CCOCC3)cc1)C(=O)CO2` [Compound I-177, N-hydroxy-4-(4-morpholinobenzyl)-3-oxo-3,4-dihydro-2H-benzo[b][1,4]oxazine-6-carboxamide] it was 25 to 100 nM; in that of `O=C(NO)c1ccc2c(c1)N(Cc1cnc(-c3ccccc3)o1)C(=O)CO2` [Compound I-178, N-hydroxy-3-oxo-4-((2-phenyloxazol-5-yl)methyl)-3,4-dihydro-2H-benzo[b][1,4]oxazine-6-carboxamide], ≤ 25 nM; in that of `O=C(NO)c1ccc2c(c1)N(Cc1coc(-c3ccccc3)n1)C(=O)CO2` [Compound I-179, N-hydroxy-3-oxo-4-((2-phenyloxazol-4-yl)methyl)-3,4-dihydro-2H-benzo[b][1,4]oxazine-6-carboxamide], ≤ 25 nM. Turning to `O=C(NO)c1ccc2c(c1)N(Cc1cnn(-c3ccccc3)n1)C(=O)CO2` [Compound I-180, N-hydroxy-3-oxo-4-((2-phenyl-2H-1,2,3-triazol-4-yl)methyl)-3,4-dihydro-2H-benzo[b][1,4]oxazine-6-carboxamide], the IC50 is ≤ 25 nM. As for `CC(C)(C)OC(=O)N1CCc2cc(CN3C(=O)COc4ccc(C(=O)NO)cc43)ccc2C1` [Compound I-181, tert-butyl 6-((6-(hydroxycarbamoyl)-3-oxo-2,3-dihydrobenzo[b][1,4]oxazin-4-yl)methyl)-3,4-dihydroisoquinoline-2(1H)-carboxylate], the figure is ≤ 25 nM; as for `CN1CCCc2cc(CN3C(=O)COc4ccc(C(=O)NO)cc43)ccc21` [Compound I-182, N-hydroxy-4-((1-methyl-1,2,3,4-tetrahydroquinolin-6-yl)methyl)-3-oxo-3,4-dihydro-2H-benzo[b][1,4]oxazine-6-carboxamide], 25 to 100 nM. In the case of `CN1C(=O)CCc2cc(CN3C(=O)COc4ccc(C(=O)NO)cc43)ccc21` [Compound I-183, N-hydroxy-4-((1-methyl-2-oxo-1,2,3,4-tetrahydroquinolin-6-yl)methyl)-3-oxo-3,4-dihydro-2H-benzo[b][1,4]oxazine-6-carboxamide] it was ≤ 25 nM; in that of `CC(=O)Nc1ccc(CN2C(=O)COc3ccc(C(=O)NO)cc32)cc1` [Compound I-186, 4-(4-acetamidobenzyl)-N-hydroxy-3-oxo-3,4-dihydro-2H-benzo[b][1,4]oxazine-6-carboxamide], ≤ 25 nM. Consider `O=C(NO)c1ccc2c(c1)N(Cc1ccc(-n3ccnc3)cc1)C(=O)CO2` [Compound I-187, 4-(4-(1H-imidazol-1-yl)benzyl)-N-hydroxy-3-oxo-3,4-dihydro-2H-benzo[b][1,4]oxazine-6-carboxamide], for which the half-maximal inhibitory concentration (IC50) is ≤ 25 nM.

`O=C(NO)c1ccc2c(c1)N(Cc1ccc(N3CCCC3=O)cc1)C(=O)CO2` [Compound I-188, N-hydroxy-3-oxo-4-(4-(2-oxopyrrolidin-1-yl)benzyl)-3,4-dihydro-2H-benzo[b][1,4]oxazine-6-carboxamide]: the IC50 lay in the range of 25 to 100 nM. In the case of `CN(C)S(=O)(=O)c1ccc(CN2C(=O)COc3ccc(C(=O)NO)cc32)cc1` [Compound I-189, 4-(4-(N,N-dimethylsulfamoyl)benzyl)-N-hydroxy-3-oxo-3,4-dihydro-2H-benzo[b][1,4]oxazine-6-carboxamide] it was ≤ 25 nM.

For `O=C(NO)c1ccc2c(c1)N(Cc1ccc(C(=O)N3CCOCC3)cc1)C(=O)CO2` [Compound I-190, N-hydroxy-4-(4-(morpholine-4-carbonyl)benzyl)-3-oxo-3,4-dihydro-2H-benzo[b][1,4]oxazine-6-carboxamide], the concentration for half-maximal inhibition (IC50) fell in the range of 25 to 100 nM. Turning to `O=C(NO)c1ccc2c(c1)N(Cc1ncc(-c3ccccc3)o1)C(=O)CO2` [Compound I-191, N-hydroxy-3-oxo-4-((5-phenyloxazol-2-yl)methyl)-3,4-dihydro-2H-benzo[b][1,4]oxazine-6-carboxamide], the IC50 is ≤ 25 nM. As for `O=C(NO)c1ccc2c(c1)N(Cc1ccc(C(=O)N3CCCC3)cc1)C(=O)CO2` [Compound I-192, N-hydroxy-3-oxo-4-(4-(pyrrolidine-1-carbonyl)benzyl)-3,4-dihydro-2H-benzo[b][1,4]oxazine-6-carboxamide], the figure is 25 to 100 nM; as for `O=C(NO)c1ccc2c(c1)N(Cc1ncn(-c3ccccc3)n1)C(=O)CO2` [Compound I-193, N-hydroxy-3-oxo-4-((1-phenyl-1H-1,2,4-triazol-3-yl)methyl)-3,4-dihydro-2H-benzo[b][1,4]oxazine-6-carboxamide], 25 to 100 nM.
